US20040157818A1, “Cxcr4-antagonistic drugs composed of nitrogen-containing compound” (priority 2001, published 2004)

Key:
ICR mice = assay: Acute toxicity in ICR mice; format: in vivo; details: 50 mg/kg intraperitoneally twice a day for 4 days; dead mice after 5 days; male ICR mice, three animals per group
Method: The CXCR4-antagonist or the salt thereof of the present invention is intraperitoneally injected in to an ICR mouse ([…]) twice a day for 4 consecutive days, and no lethal case was found after 5 days. Therefore, the conclusion can be drawn that there is no acute toxicity.
7-week old ICR mice (male) (obtained from Charls River Japan Inc) were divided into three-animals for each groups. After domestication-breeding for 1 week, the compound of the coresponding Synthesis Example was dissolved in a physiological salt solution or distilled water and the solution was then intraperitoneally dosed twice a day for 4 days (50 mg/kg in dosage).

CXCR4 = target: T1, CXCR4 (Homo sapiens, UniProt P61073); assay: CXCR4-binding inhibition activity (125I-SDF-1α binding to MT-4 cells); details: 0.1 μM test material, ligand 125I-SDF-1α, 2 hours under ice cold condition
T1 construct: endogenous in cells; host or cells: MT-4 cells
Method: CXCR4-Binding Inhibition Activity
MT-4 cells (5×10^6/0.2 ml/well) were cultured on a 24-well microtiter plate. After the cells were incubated for 24 hours at 37° C. in a carbon dioxide gas incubator, a culture mediumwas replaced with a buffer solution (RPMI-1640 containing 0.1% BSA). Together with a ligand ^125I-SDF-1α (specific activity: 2,2000 Ci/mmol; DAIICHI PURE CHEMICALS CO. ,LTD. (Tokyo)), various concentrations of test materials were subjected to a binding reaction for 2 hours under ice cold condition.

T1 sequence (P61073 whole entry): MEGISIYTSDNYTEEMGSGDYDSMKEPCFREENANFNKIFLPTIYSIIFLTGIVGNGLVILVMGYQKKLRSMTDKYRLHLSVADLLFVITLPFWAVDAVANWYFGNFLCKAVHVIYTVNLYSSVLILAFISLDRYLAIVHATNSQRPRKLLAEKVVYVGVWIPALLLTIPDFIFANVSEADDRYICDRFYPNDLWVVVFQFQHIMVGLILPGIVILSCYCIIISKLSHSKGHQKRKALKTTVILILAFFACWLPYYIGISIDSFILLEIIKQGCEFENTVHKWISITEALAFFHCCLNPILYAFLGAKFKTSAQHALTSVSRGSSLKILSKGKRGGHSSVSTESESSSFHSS

SMILES | Number of dead mice (ICR mice) | inhibition rate (binding-inhibition % at 0.1 μM) (CXCR4) [%]
O=C(N[C@@H](CCCNC1CCCc2cccnc21)C(=O)NCc1cccc2ccccc12)c1ccc(CNCc2ncc[nH]2)cc1 (stereo partly drawn) [Compound No. 39, (2S)-2-(4-((N-imidazol-2-ylmethyl)aminomethyl)benzoylamino)-5-(5,6,7,8-tetrahydroquinolin-8-ylamino)valerate 1-naphthalenemethylamide] | 0/3 | –
O=C(N[C@@H](CCCNC1CCCc2cccnc21)C(=O)NCc1cccc2ccccc12)c1ccc(CNCc2ncc[nH]2)c2ccccc12 (stereo partly drawn) [Compound No. 41, (2S)-2-(4-((N-imidazol-2-ylmethyl)aminomethyl)naphthoylamino)-5-(5,6,7,8-tetrahydroquinolin-8-ylamino)valerate 1-naphthalenemethylamide] | 0/3 | 97.9
C[C@H](NC(=O)[C@H](CCCNC(=N)N)NC(=O)c1ccc(CNCc2ncc[nH]2)c2ccccc12)c1cccc2ccccc12 [Compound No. 49, N^α-(4-(imidazol-2-ylmethyl)aminomethylnaphthoyl)-L-arginine (1′S)-(1′-(1-naphthyl)ethyl)amide] | 0/3 | 97.8
C[C@H](NC(=O)[C@H](CCCNC1CCCc2cccnc21)NC(=O)c1ccc(CNCc2ncc[nH]2)c2ccccc12)c1cccc2ccccc12 (stereo partly drawn) [Compound No. 57] | 0/3 | 97.8
O=C(N[C@@H](CCCNC1CCCc2cccnc21)C(=O)NCc1cccc2ccccc12)c1ccc(CNCc2ccccn2)cc1 (stereo partly drawn) [Compound No. 65, (2S)-2-(4-(N-2-picolylaminomethyl)benzoylamino)-5-((5,6,7,8-tetrahydroquinolin-8-yl)amino)valerate 1-naphthalenemethylamide] | 0/3 | 75.1
O=C(N[C@@H](CCCNC1CCCc2cccnc21)C(=O)NCCc1c[nH]c2ccccc12)c1ccc(CNCc2ccccn2)c2ccccc12 (stereo partly drawn) [Compound No. 92, (2S)-2-(4-(N-2-picolylaminomethyl)naphthoyl)amino-5-(5,6,7,8-tetrahydroquinolin-8-yl)amino valerate 2-(3-indolyl)ethylamide] | 0/3 | –
Cn1ccnc1CNCc1ccc(C(=O)N[C@@H](CCCNC2CCCc3cccnc32)C(=O)NCc2cccc3ccccc23)cc1 (stereo partly drawn) [Compound No. 96, (2S)-2-((1-methylimidazol-2-ylmethyl)aminomethyl) benzoylamino-5-(5,6,7,8-tetrahydroquinolyl-8-yl)amino valerate 1-naphthalene methyleneamide] | 0/3 | 96.8
O=C(N[C@@H](CCCN[C@H]1CCCc2cccnc21)C(=O)NCc1cccc2ccccc12)c1ccc(CNCc2ccccn2)c2ccccc12 [Compound No. 105, (2S)-2-(4-(N-2-picolylaminomethyl)naphthalene-1-carbonyl)amino-5-((8S)-5,6,7,8-tetrahydroquinolin-8-yl)amino valerate 1-naphthylmethylamide] | – | 91.9
C[C@H](NC(=O)[C@H](CCCNC1=NCCN1)NC(=O)c1ccc(CNCc2ncc[nH]2)cc1)c1cccc2ccccc12 [Compound No. 110, (S)-2-(4-((N-imidazol-2-ylmethyl)aminomethyl)benzoyl)amino-5-(4,5-dihydroimidazol-2-yl)amino valerate(1′S)-1′-(1-naphthyl)ethylamide] | – | 75.7
C[C@H](NC(=O)[C@H](CCCNC1=NCCCN1)NC(=O)c1ccc(CNCc2ncc[nH]2)cc1)c1cccc2ccccc12 [Compound No. 112, (S)-2-(4-((N-imidazol-2-ylmethyl)aminomethyl)benzoyl)amino-5-(3,4,5,6-tetrahydropyrimidin-2-yl)amino valerate(1′S)-1′-(1-naphthyl)ethylamide] | – | 84.2
